These results are taken from PubChem BioAssay AID256 (DTP/NCI, 2004).

Each structure is given as a SMILES string. Several values for one entry are separate records, joined by “and”; a condition that tells them apart may be missing. Identical values can stand only once. Toxic doses and inconclusive results are not listed.

This experiment has as its system CD2F1 mice, L1210 leukemia ip, survival T/C. Put plainly: NCI In Vivo Anticancer Drug Screen. Data for tumor model L1210 Leukemia (intraperitoneal) in CD2F1 (CDF1) mice. Particulars: higher = longer survival. An outline of the steps:
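In this screen, transplantable tumors were grown in mice given either the compound or its vehicle. Results were expressed as the treated measurement relative to the control measurement.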

Where [1] appears, read: endpoint: mean survival time, dose: 100.0 mg/kg/injection, schedule: Q04DX003 (ip), vehicle: saline with Tween-80.
The mark [2] stands for this setting: endpoint: mean survival time, dose: 200.0 mg/kg/injection, schedule: Q04DX003 (ip), vehicle: saline with Tween-80.
The mark [3] stands for this setting: endpoint: mean survival time, dose: 400.0 mg/kg/injection, schedule: Q04DX003 (ip), vehicle: saline with Tween-80.
Setting [4] is: endpoint: mean survival time, dose: 12.5 mg/kg/injection, schedule: Q01DX005 (ip), vehicle: other.
Where [5] appears, read: endpoint: mean survival time, dose: 25.0 mg/kg/injection, schedule: Q01DX005 (ip), vehicle: other.
Where [6] appears, read: endpoint: mean survival time, dose: 50.0 mg/kg/injection, schedule: Q01DX005 (ip), vehicle: other.
The mark [7] stands for this setting: endpoint: mean survival time, dose: 100.0 mg/kg/injection, schedule: Q01DX009 (ip), vehicle: saline with Tween-80.
[8] abbreviates: endpoint: mean survival time, dose: 200.0 mg/kg/injection, schedule: Q01DX009 (ip), vehicle: saline with Tween-80.
The mark [9] stands for this setting: endpoint: mean survival time, dose: 400.0 mg/kg/injection, schedule: Q01DX009 (ip), vehicle: saline with Tween-80.
The mark [10] stands for this setting: endpoint: median survival time, dose: 25.0 mg/kg/injection, schedule: Q01DX005 (ip), vehicle: water.
The mark [11] stands for this setting: endpoint: median survival time, dose: 50.0 mg/kg/injection, schedule: Q01DX005 (ip), vehicle: water.
Where [12] appears, read: endpoint: median survival time, dose: 100.0 mg/kg/injection, schedule: Q01DX005 (ip), vehicle: water.
Where [13] appears, read: endpoint: median survival time, dose: 200.0 mg/kg/injection, schedule: Q01DX005 (ip), vehicle: water.
[14] abbreviates: endpoint: mean survival time, dose: 100.0 mg/kg/injection, schedule: Q04DX002 (ip), vehicle: saline with Tween-80.
The mark [15] stands for this setting: endpoint: mean survival time, dose: 200.0 mg/kg/injection, schedule: Q04DX002 (ip), vehicle: saline with Tween-80.
[16] abbreviates: endpoint: mean survival time, dose: 400.0 mg/kg/injection, schedule: Q04DX002 (ip), vehicle: saline with Tween-80.

Regarding `Nc1nc2ncc(CNc3ccc(C(=O)NC(CCC(=O)O)C(=O)O)cc3)nc2c(=O)[nH]1.[NH-]C1CCCCC1[NH-].[Pt+2]` (centres undefined), the T/C was 102 % of control and 104 % of control (endpoint: median survival time, dose: 3.12 mg/kg/injection, schedule: Q04DX003 (ip), vehicle: saline); 107 % of control and 108 % of control (endpoint: median survival time, dose: 6.25 mg/kg/injection, schedule: Q04DX003 (ip), vehicle: saline); 105 % of control (endpoint: median survival time, dose: 12.5 mg/kg/injection, schedule: Q04DX003 (ip), vehicle: saline); 116 % of control and 108 % of control (endpoint: median survival time, dose: 25.0 mg/kg/injection, schedule: Q04DX003 (ip), vehicle: saline); 114 % of control and 111 % of control (endpoint: median survival time, dose: 50.0 mg/kg/injection, schedule: Q04DX003 (ip), vehicle: saline); 113 % of control and 115 % of control (endpoint: median survival time, dose: 100.0 mg/kg/injection, schedule: Q04DX003 (ip), vehicle: saline). For the setting “endpoint: median survival time, dose: 200.0 mg/kg/injection, schedule: Q04DX003 (ip), vehicle: saline”, the T/C is 161 % of control.

Take `Cc1cc(C)c(C(=O)CC(O)(C(F)(F)F)C(F)(F)F)c(C)c1`: the T/C under setting [1] is 115 % of control, the T/C under setting [2] is 107 % of control and the T/C under setting [3] was 107 % of control.

For the molecule `CCCCCCCCCCCCCCn1cnc2c(Cl)ncnc21`, the T/C runs as follows: under setting [4], 105 % of control; under setting [5], 97 % of control; under setting [6], 94 % of control; (endpoint: mean survival time, dose: 100.0 mg/kg/injection, schedule: Q01DX005 (ip), vehicle: other) 97 % of control; (endpoint: mean survival time, dose: 200.0 mg/kg/injection, schedule: Q01DX005 (ip), vehicle: other) 102 % of control.

For the molecule `CCN(CC)c1nc(CCc2ccc(N(C)C)cc2)c2[nH]cnc2n1`, the T/C is 94 % of control (endpoint: mean survival time, dose: 3.13 mg/kg/injection, schedule: Q01DX005 (ip), vehicle: other); 93 % of control (endpoint: mean survival time, dose: 6.25 mg/kg/injection, schedule: Q01DX005 (ip), vehicle: other); 93 % of control under setting [4]; 89 % of control under setting [5]; 89 % of control under setting [6].

For the molecule `CCC1(CC)CO1`, the T/C was 104 % of control under setting [7]; 96 % of control (endpoint: mean survival time, dose: 100.0 mg/kg/injection, schedule: Q04DX003 (ip), vehicle: saline); 93 % of control under setting [8]; 94 % of control (endpoint: mean survival time, dose: 200.0 mg/kg/injection, schedule: Q04DX003 (ip), vehicle: saline); 97 % of control under setting [9]; 98 % of control (endpoint: mean survival time, dose: 400.0 mg/kg/injection, schedule: Q04DX003 (ip), vehicle: saline).

On to `Cc1cn(C2OC(CO)C(O)C2O)c(=O)nc1N` (centres undefined), for which the T/C by setting is: under setting [10], 96 % of control; under setting [11], 104 % of control; under setting [12], 104 % of control; under setting [13], 104 % of control.

For the molecule `CCCCCCCCCC(=O)NCC[N+](C)(C)C`, the T/C is 107 % of control (endpoint: mean survival time, dose: 5.0 mg/kg/injection, schedule: Q01DX001 (ip), vehicle: saline); 102 % of control (endpoint: mean survival time, dose: 10.0 mg/kg/injection, schedule: Q01DX001 (ip), vehicle: saline); 103 % of control (endpoint: mean survival time, dose: 20.0 mg/kg/injection, schedule: Q01DX001 (ip), vehicle: saline); 103 % of control (endpoint: mean survival time, dose: 40.0 mg/kg/injection, schedule: Q01DX001 (ip), vehicle: saline); 103 % of control (endpoint: mean survival time, dose: 80.0 mg/kg/injection, schedule: Q01DX001 (ip), vehicle: saline).

For the molecule `CC(=O)[CH-]C(C)=O.O=[N+]([O-])O.[NH-]C1CCCCC1[NH-].[Pt+4]` (centres undefined), the T/C runs as follows: (endpoint: mean survival time, dose: 1.25 mg/kg/injection, schedule: Q04DX003 (ip), vehicle: water) 95 % of control; (endpoint: mean survival time, dose: 2.5 mg/kg/injection, schedule: Q04DX003 (ip), vehicle: water) 98 % of control; (endpoint: mean survival time, dose: 5.0 mg/kg/injection, schedule: Q04DX003 (ip), vehicle: water) 98 % of control; (endpoint: mean survival time, dose: 10.0 mg/kg/injection, schedule: Q04DX003 (ip), vehicle: water) 110 % of control.

As for `CCN(CC)Cc1ccc(Nc2cc(C)nc(/N=C(\N)Nc3ccc(Cl)c(Cl)c3)n2)cc1`, the T/C was 98 % of control (endpoint: mean survival time, dose: 12.5 mg/kg/injection, schedule: Q04DX003 (ip), vehicle: saline with Tween-80) and 95 % of control (endpoint: mean survival time, dose: 25.0 mg/kg/injection, schedule: Q04DX003 (ip), vehicle: saline with Tween-80).

Take `Cc1cccc(NC2=NCCO2)c1`: the T/C was 104 % of control (endpoint: mean survival time, dose: 100.0 mg/kg/injection, schedule: Q01DX001 (ip), vehicle: saline with Tween-80) and 103 % of control (endpoint: mean survival time, dose: 200.0 mg/kg/injection, schedule: Q01DX001 (ip), vehicle: saline with Tween-80).

For `CC(C)NC(=O)Nc1ccccc1Cl`, the T/C under setting [14] was 93 % of control, the T/C under setting [15] is 97 % of control and the T/C under setting [16] was 104 % of control.

As for `Nc1ccc(-c2ccc(N)c([N+](=O)[O-])c2)cc1[N+](=O)[O-]`, the T/C under setting [7] is 98 % of control; the T/C under setting [1] is 86 % of control; the T/C under setting [8] is 94 % of control; the T/C under setting [2] is 89 % of control; the T/C under setting [9] is 95 % of control; the T/C under setting [3] is 86 % of control.

With `CC(C)(C[NH-])C[NH-].[Cl][Pt+2]([Cl])([Cl])[Cl]`, the T/C was 116 % of control and 111 % of control (endpoint: median survival time, dose: 0.2 mg/kg/injection, schedule: Q04DX003 (ip), vehicle: water); 116 % of control and 124 % of control (endpoint: median survival time, dose: 0.4 mg/kg/injection, schedule: Q04DX003 (ip), vehicle: water); 151 % of control and 186 % of control and 228 % of control (endpoint: median survival time, dose: 1.6 mg/kg/injection, schedule: Q04DX003 (ip), vehicle: water); 123 % of control (endpoint: median survival time, dose: 3.12 mg/kg/injection, schedule: Q04DX003 (ip), vehicle: distilled water + Tween-80).

Regarding `Cc1c2c(c(C)c3c(C)nccc13)Cc1ccccc1-2`, the T/C by setting is: under setting [14], 92 % of control; under setting [15], 92 % of control; under setting [16], 88 % of control.

On to `CC(=O)Nc1ccc(C#[N+][S-])cc1`, for which the T/C is, setting by setting: (endpoint: mean survival time, dose: 3.13 mg/kg/injection, schedule: Q01DX001 (ip), vehicle: Klucel (hydroxypropylcellulose) (HPC)) 104 % of control; (endpoint: mean survival time, dose: 6.25 mg/kg/injection, schedule: Q01DX001 (ip), vehicle: Klucel (hydroxypropylcellulose) (HPC)) 97 % of control; (endpoint: mean survival time, dose: 12.5 mg/kg/injection, schedule: Q01DX001 (ip), vehicle: Klucel (hydroxypropylcellulose) (HPC)) 93 % of control.

With `C=C(C(=O)O)C(N)C(=O)O` (centres undefined), the T/C (endpoint: median survival time, dose: 25.0 mg/kg/injection, schedule: Q01DX009 (ip), vehicle: suspension in saline) was 96 % of control; the T/C (endpoint: median survival time, dose: 50.0 mg/kg/injection, schedule: Q01DX009 (ip), vehicle: suspension in saline) is 108 % of control; the T/C (endpoint: median survival time, dose: 100.0 mg/kg/injection, schedule: Q01DX009 (ip), vehicle: suspension in saline) was 103 % of control; the T/C (endpoint: median survival time, dose: 200.0 mg/kg/injection, schedule: Q01DX009 (ip), vehicle: suspension in saline) is 94 % of control; the T/C (endpoint: median survival time, dose: 400.0 mg/kg/injection, schedule: Q01DX009 (ip), vehicle: suspension in saline) was 91 % of control.

With `N#Cc1cn(C2OC(CO)C(O)C2O)n2ccnc12` (centres undefined), the T/C is 118 % of control (endpoint: median survival time, dose: 12.5 mg/kg/injection, schedule: Q01DX005 (ip), vehicle: water); 102 % of control under setting [10]; 116 % of control under setting [11]; 109 % of control under setting [12]; 115 % of control under setting [13].

With `Clc1ccc2[nH]c3nc4ccccc4nc3c2c1`, the T/C reads like this: (endpoint: mean survival time, dose: 100.0 mg/kg/injection, schedule: Q01DX009 (ip), vehicle: saline) 106 % of control; (endpoint: mean survival time, dose: 200.0 mg/kg/injection, schedule: Q01DX009 (ip), vehicle: saline) 108 % of control.

On to `COC1c2cc3ccccc3nc2-c2ccccc2C1(C)C` (centres undefined), for which the T/C reads like this: (endpoint: mean survival time, dose: 12.5 mg/kg/injection, schedule: Q01DX009 (ip), vehicle: water) 96 % of control; (endpoint: mean survival time, dose: 25.0 mg/kg/injection, schedule: Q01DX009 (ip), vehicle: water) 96 % of control; (endpoint: mean survival time, dose: 50.0 mg/kg/injection, schedule: Q01DX009 (ip), vehicle: water) 91 % of control; (endpoint: mean survival time, dose: 100.0 mg/kg/injection, schedule: Q01DX009 (ip), vehicle: water) 91 % of control; (endpoint: mean survival time, dose: 200.0 mg/kg/injection, schedule: Q01DX009 (ip), vehicle: water) 90 % of control.
